Data: patent publication US20230150974A1 (Foghorn Therapeutics Inc., priority 2020, published 2023)

How the values were obtained:
HiBit-BRG1 = biological target: T1, HiBit-BRG1 (Homo sapiens, UniProt P51532); experiment: HiBit-BRG1 cell-based degradation assay (Nano-Glo HiBiT Lytic Detection); details: HeLa cells expressing HiBit-BRG1 and LgBit, 24 h; for DC50: read-out: BRG1 HiBit Degradation IC50; for Dmax: read-out: BRG1 HiBit Degradation Maximum (%)
T1 construct: expressed in transfected cells
Method in brief: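 Stable HeLa line co-expressing HiBit-BRG1 and LgBit, 5000 cells/well, treated 24 h in a tissue culture incubator. Lysed with Nano-Glo HiBiT lytic reagent, luminescence read. % degradation normalized to DMSO (high control) and 2 μM reference BRM/BRG1 degrader (low control).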

HiBiT-BRM = biological target: T2, HiBiT-BRM (Homo sapiens, UniProt P51531); experiment: HiBiT-BRM cell-based degradation assay (Nano-Glo HiBiT Lytic Detection); details: HeLa cells expressing HiBiT-BRM, 24 h; for DC50: read-out: BRM HiBit Degradation IC50
T2 construct: expressed in transfected cells
Method in brief: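 HeLa cells stably expressing HiBiT-tagged BRM were treated for 24 h, then lysed with LgBiT-containing Nano-Glo reagent and luminescence read. % degradation scaled between DMSO (high control) and 2 μM reference BRM/BRG1 degrader (low control).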

T2 sequence (P51531 whole entry): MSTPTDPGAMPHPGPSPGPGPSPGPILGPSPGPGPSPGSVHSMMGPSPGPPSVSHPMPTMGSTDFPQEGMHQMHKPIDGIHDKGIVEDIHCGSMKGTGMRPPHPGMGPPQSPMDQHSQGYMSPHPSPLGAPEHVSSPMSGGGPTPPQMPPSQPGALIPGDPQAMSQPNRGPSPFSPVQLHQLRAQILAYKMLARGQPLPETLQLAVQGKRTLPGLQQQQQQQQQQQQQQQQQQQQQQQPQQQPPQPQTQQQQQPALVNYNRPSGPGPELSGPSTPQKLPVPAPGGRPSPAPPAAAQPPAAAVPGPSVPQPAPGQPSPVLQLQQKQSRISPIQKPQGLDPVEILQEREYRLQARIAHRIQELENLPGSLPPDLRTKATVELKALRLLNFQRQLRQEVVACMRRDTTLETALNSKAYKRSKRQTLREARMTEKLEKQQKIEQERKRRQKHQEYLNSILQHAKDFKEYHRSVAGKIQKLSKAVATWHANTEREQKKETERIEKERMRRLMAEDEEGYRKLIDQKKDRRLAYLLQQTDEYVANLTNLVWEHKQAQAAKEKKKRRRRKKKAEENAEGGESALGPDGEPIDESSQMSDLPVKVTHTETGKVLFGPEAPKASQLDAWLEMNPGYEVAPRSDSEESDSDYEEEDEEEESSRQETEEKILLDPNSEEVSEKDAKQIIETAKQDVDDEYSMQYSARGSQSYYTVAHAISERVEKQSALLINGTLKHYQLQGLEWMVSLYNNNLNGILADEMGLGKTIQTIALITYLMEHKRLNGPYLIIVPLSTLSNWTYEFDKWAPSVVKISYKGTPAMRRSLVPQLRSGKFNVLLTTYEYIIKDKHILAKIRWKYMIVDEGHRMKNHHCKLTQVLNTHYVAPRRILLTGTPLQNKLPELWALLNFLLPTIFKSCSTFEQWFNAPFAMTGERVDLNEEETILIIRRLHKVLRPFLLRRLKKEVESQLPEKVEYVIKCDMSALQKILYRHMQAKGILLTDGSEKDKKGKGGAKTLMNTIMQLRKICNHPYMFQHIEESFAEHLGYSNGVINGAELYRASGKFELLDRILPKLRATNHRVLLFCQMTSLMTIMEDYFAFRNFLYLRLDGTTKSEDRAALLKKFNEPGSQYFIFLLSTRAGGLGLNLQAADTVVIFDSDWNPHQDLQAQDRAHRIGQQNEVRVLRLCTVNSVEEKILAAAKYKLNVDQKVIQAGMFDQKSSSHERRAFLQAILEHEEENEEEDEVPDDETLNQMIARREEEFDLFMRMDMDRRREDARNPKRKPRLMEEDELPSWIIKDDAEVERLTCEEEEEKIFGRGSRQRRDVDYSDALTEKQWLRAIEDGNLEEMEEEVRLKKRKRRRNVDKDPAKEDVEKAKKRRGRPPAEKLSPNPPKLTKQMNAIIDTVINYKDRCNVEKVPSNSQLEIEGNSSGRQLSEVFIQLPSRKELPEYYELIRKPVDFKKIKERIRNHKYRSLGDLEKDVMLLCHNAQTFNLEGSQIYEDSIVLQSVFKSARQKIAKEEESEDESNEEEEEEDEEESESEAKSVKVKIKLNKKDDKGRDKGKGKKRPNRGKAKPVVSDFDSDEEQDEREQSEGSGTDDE
T1 sequence (P51532 whole entry): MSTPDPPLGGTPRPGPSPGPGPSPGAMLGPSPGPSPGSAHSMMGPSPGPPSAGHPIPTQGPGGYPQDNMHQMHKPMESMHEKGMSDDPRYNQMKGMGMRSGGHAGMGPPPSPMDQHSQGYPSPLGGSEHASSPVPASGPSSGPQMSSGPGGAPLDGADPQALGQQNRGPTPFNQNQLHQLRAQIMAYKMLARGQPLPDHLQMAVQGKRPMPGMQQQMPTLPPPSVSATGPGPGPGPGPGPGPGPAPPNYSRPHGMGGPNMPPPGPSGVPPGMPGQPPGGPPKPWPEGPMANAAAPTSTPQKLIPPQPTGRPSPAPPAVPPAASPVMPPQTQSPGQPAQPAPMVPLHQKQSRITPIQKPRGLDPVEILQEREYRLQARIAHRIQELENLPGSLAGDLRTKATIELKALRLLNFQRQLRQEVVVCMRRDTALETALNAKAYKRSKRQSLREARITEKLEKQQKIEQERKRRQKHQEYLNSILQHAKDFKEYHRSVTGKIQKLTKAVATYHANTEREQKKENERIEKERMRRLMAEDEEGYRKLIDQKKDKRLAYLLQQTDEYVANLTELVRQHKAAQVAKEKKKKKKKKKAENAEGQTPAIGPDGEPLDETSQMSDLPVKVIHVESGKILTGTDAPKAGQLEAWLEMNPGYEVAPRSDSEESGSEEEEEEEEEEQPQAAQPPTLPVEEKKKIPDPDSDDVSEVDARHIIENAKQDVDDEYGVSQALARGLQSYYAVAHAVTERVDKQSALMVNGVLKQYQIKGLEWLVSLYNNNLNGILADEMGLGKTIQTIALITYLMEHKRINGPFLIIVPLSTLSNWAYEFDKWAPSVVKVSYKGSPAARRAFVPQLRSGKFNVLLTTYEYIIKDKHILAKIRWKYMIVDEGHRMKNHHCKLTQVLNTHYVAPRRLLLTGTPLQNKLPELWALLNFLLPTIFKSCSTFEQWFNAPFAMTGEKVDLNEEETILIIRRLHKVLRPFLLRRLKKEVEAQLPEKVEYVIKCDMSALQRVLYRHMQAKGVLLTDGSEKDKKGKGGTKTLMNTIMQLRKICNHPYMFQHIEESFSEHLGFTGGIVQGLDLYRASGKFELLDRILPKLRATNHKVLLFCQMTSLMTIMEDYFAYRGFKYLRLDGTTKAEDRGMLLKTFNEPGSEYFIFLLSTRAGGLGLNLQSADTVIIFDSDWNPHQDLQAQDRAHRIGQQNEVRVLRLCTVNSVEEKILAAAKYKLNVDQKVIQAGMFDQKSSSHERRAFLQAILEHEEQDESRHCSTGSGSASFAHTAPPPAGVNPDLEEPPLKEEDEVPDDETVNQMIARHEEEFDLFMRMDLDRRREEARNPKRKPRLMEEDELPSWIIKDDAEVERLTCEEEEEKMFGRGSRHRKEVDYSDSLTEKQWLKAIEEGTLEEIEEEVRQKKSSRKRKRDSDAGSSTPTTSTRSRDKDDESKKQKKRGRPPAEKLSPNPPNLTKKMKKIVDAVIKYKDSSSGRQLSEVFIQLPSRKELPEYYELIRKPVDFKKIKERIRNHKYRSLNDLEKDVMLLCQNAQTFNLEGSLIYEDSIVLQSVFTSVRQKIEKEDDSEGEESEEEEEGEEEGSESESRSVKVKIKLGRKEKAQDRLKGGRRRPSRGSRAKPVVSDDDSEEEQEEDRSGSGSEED

`Cc1ncsc1-c1ccc([C@H](C)NC(=O)[C@@H]2C[C@@H](O)CN2C(=O)[C@@H](NC(=O)CCCCCCCCCC(=O)NCc2ccc(CCOc3cc(-c4ccccc4O)nnc3N)cc2)C(C)(C)C)cc1` [Compound 198, N1-(4-(2-((3-amino-6-(2-hydroxyphenyl)pyridazin-4-yl)oxy)ethyl)benzyl)-N11-((S)-1-((2S,4R)-4-hydroxy-2-(((S)-1-(4-(4-methylthiazol-5-yl)phenyl)ethyl)carbamoyl)pyrrolidin-1-yl)-3,3-dimethyl-1-oxobutan-2-yl)undecanediamide] was tested, and the DC50 (HiBit-BRG1) was > 1000 nM, the Dmax (HiBit-BRG1) was < 50% and the “BRM HiBit Degradation Maximum (%)” value (HiBiT-BRM) was “A (“A” indicates maximum degradation ≥75%)”. The DC50 (HiBiT-BRM) was > 10 nM.
For `Cc1ncsc1-c1ccc(CNC(=O)[C@@H]2C[C@@H](O)CN2C(=O)[C@@H](NC(=O)CCN2CC(C3CCN(C(=O)c4ccc(CCOc5cc(-c6ccccc6O)nnc5N)cc4)CC3)C2)C(C)(C)C)cc1` [Compound 199, (2S,4R)-1-((S)-2-(3-(3-(1-(4-(2-((3-amino-6-(2-hydroxyphenyl)pyridazin-4-yl)oxy)ethyl)benzoyl)piperidin-4-yl)azetidin-1-yl)propanamido)-3,3-dimethylbutanoyl)-4-hydroxy-N-(4-(4-methylthiazol-5-yl)benzyl)pyrrolidine-2-carboxamide], the DC50 (HiBit-BRG1) was > 1000 nM, the Dmax (HiBit-BRG1) was < 50% and the “BRM HiBit Degradation Maximum (%)” value (HiBiT-BRM) was “C (“C” indicates maximum degradation <50%)”. The DC50 (HiBiT-BRM) was > 1000 nM.
With `Cc1ncsc1-c1ccc(CNC(=O)[C@@H]2C[C@@H](O)CN2C(=O)[C@@H](NC(=O)CCN2CC3(C2)CN(C(=O)c2ccc(CCOc4cc(-c5ccccc5O)nnc4N)cc2)C3)C(C)(C)C)cc1` [Compound 200, (2S,4R)-1-((S)-2-(3-(6-(4-(2-((3-amino-6-(2-hydroxyphenyl)pyridazin-4-yl)oxy)ethyl)benzoyl)-2,6-diazaspiro[3.3]heptan-2-yl)propanamido)-3,3-dimethylbutanoyl)-4-hydroxy-N-(4-(4-methylthiazol-5-yl)benzyl)pyrrolidine-2-carboxamide] the DC50 (HiBit-BRG1) was > 1000 nM, the Dmax (HiBit-BRG1) was < 50% and the “BRM HiBit Degradation Maximum (%)” value (HiBiT-BRM) was “C (“C” indicates maximum degradation <50%)”. For the same compound, the DC50 (HiBiT-BRM) was > 1000 nM.
For `Cc1ncsc1-c1ccc(CNC(=O)[C@@H]2C[C@@H](O)CN2C(=O)[C@@H](NC(=O)CCN2CCC3(CC2)CCN(C(=O)c2ccc(CCOc4cc(-c5ccccc5O)nnc4N)cc2)CC3)C(C)(C)C)cc1` [Compound 201, (2S,4R)-1-((S)-2-(3-(9-(4-(2-((3-amino-6-(2-hydroxyphenyl)pyridazin-4-yl)oxy)ethyl)benzoyl)-3,9-diazaspiro[5.5]undecan-3-yl)propanamido)-3,3-dimethylbutanoyl)-4-hydroxy-N-(4-(4-methylthiazol-5-yl)benzyl)pyrrolidine-2-carboxamide], the DC50 (HiBit-BRG1) was > 1000 nM, the Dmax (HiBit-BRG1) was < 50% and the “BRM HiBit Degradation Maximum (%)” value (HiBiT-BRM) was “B (“B” indicates maximum degradation ≥50%)”. For the same compound, the DC50 (HiBiT-BRM) was > 1000 nM.
With `Cc1ncsc1-c1ccc(CNC(=O)[C@@H]2C[C@@H](O)CN2C(=O)[C@@H](NC(=O)CCN2CCC(OC3CCN(C(=O)c4ccc(CCOc5cc(-c6ccccc6O)nnc5N)cc4)CC3)CC2)C(C)(C)C)cc1` [Compound 202, (2S,4R)-1-((S)-2-(3-(4-((1-(4-(2-((3-amino-6-(2-hydroxyphenyl)pyridazin-4-yl)oxy)ethyl)benzoyl)piperidin-4-yl)oxy)piperidin-1-yl)propanamido)-3,3-dimethylbutanoyl)-4-hydroxy-N-(4-(4-methylthiazol-5-yl)benzyl)pyrrolidine-2-carboxamide] the DC50 (HiBit-BRG1) was > 1000 nM, the Dmax (HiBit-BRG1) was < 50% and the “BRM HiBit Degradation Maximum (%)” value (HiBiT-BRM) was “B (“B” indicates maximum degradation ≥50%)”. The DC50 (HiBiT-BRM) was > 1000 nM.
`Cc1ncsc1-c1ccc(CNC(=O)[C@@H]2C[C@@H](O)CN2C(=O)[C@@H](NC(=O)CCN2C[C@@H]3CN(C(=O)c4ccc(CCOc5cc(-c6ccccc6O)nnc5N)cc4)C[C@@H]3C2)C(C)(C)C)cc1` [Compound 203, (2S,4R)-1-((2S)-2-(3-(5-(4-(2-((3-amino-6-(2-hydroxyphenyl)pyridazin-4-yl)oxy)ethyl)benzoyl)hexahydropyrrolo[3,4-c]pyrrol-2(1H)-yl)propanamido)-3,3-dimethylbutanoyl)-4-hydroxy-N-(4-(4-methylthiazol-5-yl)benzyl)pyrrolidine-2-carboxamide] was tested, and the DC50 (HiBit-BRG1) was > 1000 nM, the Dmax (HiBit-BRG1) was < 50% and the “BRM HiBit Degradation Maximum (%)” value (HiBiT-BRM) was “B (“B” indicates maximum degradation ≥50%)”. The DC50 (HiBiT-BRM) was > 1000 nM.
In the case of `Cc1ncsc1-c1ccc(CNC(=O)[C@@H]2C[C@@H](O)CN2C(=O)[C@@H](NC(=O)CCN2CCC(C3CN(C(=O)c4ccc(CCOc5cc(-c6ccccc6O)nnc5N)cc4)C3)CC2)C(C)(C)C)cc1` [Compound 204, (2S,4R)-1-((S)-2-(3-(4-(1-(4-(2-((3-amino-6-(2-hydroxyphenyl)pyridazin-4-yl)oxy)ethyl)benzoyl)azetidin-3-yl)piperidin-1-yl)propanamido)-3,3-dimethylbutanoyl)-4-hydroxy-N-(4-(4-methylthiazol-5-yl)benzyl)pyrrolidine-2-carboxamide], the DC50 (HiBit-BRG1) is reported as > 1000 nM, the Dmax (HiBit-BRG1) is reported as < 50% and the “BRM HiBit Degradation Maximum (%)” value (HiBiT-BRM) is reported as “B (“B” indicates maximum degradation ≥50%)”. For the same compound, the DC50 (HiBiT-BRM) was > 1000 nM.
`Cc1ncsc1-c1ccc([C@H](C)NC(=O)[C@@H]2C[C@@H](O)CN2C(=O)[C@@H](c2cc(OCCNCc3ccc(CCOc4cc(-c5ccccc5O)nnc4N)cc3)no2)C(C)C)cc1` [Compound 205, (2S,4R)-1-[(2R)-2-[3-[2-([[4-(2-[[3-amino-6-(2-hydroxyphenyl)pyridazin-4-yl]oxy]ethyl)phenyl]methyl]amino)ethoxy]-1,2-oxazol-5-yl]-3-methylbutanoyl]-4-hydroxy-N-[(1S)-1-[4-(4-methyl-1,3-thiazol-5-yl)phenyl]ethyl]pyrrolidine-2-carboxamide] was tested, and the DC50 (HiBit-BRG1) was > 100 nM, the Dmax (HiBit-BRG1) was > 75% and the “BRM HiBit Degradation Maximum (%)” value (HiBiT-BRM) was “A (“A” indicates maximum degradation ≥75%)”. For the same compound, the DC50 (HiBiT-BRM) was < 10 nM.
In the case of `Cc1ncsc1-c1ccc([C@H](C)NC(=O)[C@@H]2C[C@@H](O)CN2C(=O)[C@@H](c2cc(OCCN3CCC(O)(C(=O)NCc4ccc(CCOc5cc(-c6ccccc6O)nnc5N)cc4)CC3)no2)C(C)C)cc1` [Compound 206, N-[[4-(2-[[3-amino-6-(2-hydroxyphenyl)pyridazin-4-yl]oxy]ethyl)phenyl]methyl]-4-hydroxy-1-[2-([5-[(2R)-1-[(2S,4R)-4-hydroxy-2-[[(1S)-1-[4-(4-methyl-1,3-thiazol-5-yl)phenyl]ethyl]carbamoyl]pyrrolidin-1-yl]-3-methyl-1-oxobutan-2-yl]-1,2-oxazol-3-yl]oxy)ethyl]piperidine-4-carboxamide], the DC50 (HiBit-BRG1) is reported as > 100 nM, the Dmax (HiBit-BRG1) is reported as > 75% and the “BRM HiBit Degradation Maximum (%)” value (HiBiT-BRM) is reported as “A (“A” indicates maximum degradation ≥75%)”. The DC50 (HiBiT-BRM) was > 10 nM.
With `Cc1ncsc1-c1ccc([C@H](C)NC(=O)[C@@H]2C[C@@H](O)CN2C(=O)[C@@H](c2cc(OCCN3CCC(C4CN(C(=O)c5ccc(CCOc6cc(-c7ccccc7O)nnc6N)cc5)C4)CC3)no2)C(C)C)cc1` [Compound 207, (2S,4R)-1-[(2R)-2-[3-[2-(4-[1-[4-(2-[[3-amino-6-(2-hydroxyphenyl)pyridazin-4-yl]oxy]ethyl)benzoyl]azetidin-3-yl]piperidin-1-yl)ethoxy]-1,2-oxazol-5-yl]-3-methylbutanoyl]-4-hydroxy-N-[(1S)-1-[4-(4-methyl-1,3-thiazol-5-yl)phenyl]ethyl]pyrrolidine-2-carboxamide] the DC50 (HiBit-BRG1) was > 1000 nM, the Dmax (HiBit-BRG1) was < 50% and the “BRM HiBit Degradation Maximum (%)” value (HiBiT-BRM) was “A (“A” indicates maximum degradation ≥75%)”. For the same compound, the DC50 (HiBiT-BRM) was > 10 nM.
